Laboratory results as given in patent US20140356414A1, “Targeted Crosslinked Multilamellar Liposomes” (University of Southern California, priority 2013, published 2014).

Experiments:
B16 cells = assay: In vitro cytotoxicity, XTT assay, B16 cells; assay type: cell-based; conditions: 48 h
Procedure: B16 or HeLa cells were plated at a density of 5×10^3 cells per well in D10 media in 96-well plates and grown for 6 h. The cells were then exposed to a series of concentrations of Dox-loaded CMLs, ULs or DLLs for 48 h, and the cytotoxicity of Dox-liposomes was assessed using the Cell Proliferation Kit II (XTT assay) from Roche Applied Science, according to the manufacturer's instructions.

cardiac tissue = conditions: 20 mg/kg Dox equivalent, single i.v.
Text: FIGS. 9A-B. In vivo toxicity and tolerability. […] (A) Average mouse weight loss over time. […] Error bars represent the standard deviation of the mean; n=2 for each treatment group (*p<0.05, ***p<0.005).

[1] = Maximum tolerated dose study; conditions: for body weight: 8 days
Text: The mice were weighed and monitored daily for 8 days after injection.

COc1cccc2c1C(=O)c1c(O)c3c(c(O)c1C2=O)C[C@@](O)(C(=O)CO)C[C@@H]3O[C@H]1C[C@H](N)[C@H](O)[C@H](C)O1 [free Dox, doxorubicin]
half-maximal response (EC50) (B16 cells): similar
histopathologic changes in cardiac tissue (cardiac tissue): severe damage of cardiac tissue
body weight ([1]; 20 mg/kg Dox equivalent): significant loss of body weight
body weight ([1]; 40 mg/kg Dox equivalent): significant loss of body weight
general health / signs of toxicity ([1]; 40 mg/kg free Dox, CML-Dox groups): obvious signs of toxicity
maximum tolerated dose ([1]; single intravenous administration, C57BL/6 mice): < 20 mg/kg
